Test results from patent EP0244363A1, “Composition and method to inhibit the growth of organisms by the use of bis-biguanido hexanes and essential oil mixture combinations” (WARNER-LAMBERT COMPANY, priority 1986, dated 1987).
In brackets after ≈: the same amount, converted by molar mass. Where two headings read alike, the source gives them in different places.

Assays:
Assay in all cases: Minimal growth inhibitory concentration (MIC), serial dilution in broth, agent alone
Assay type in all cases: cell-based
[1] = tested on: Streptococcus mutans ATCC 25175; details: for MIC: Streptococcus mutans, ATCC25175, 48 h, read-out: MIC (micro g/ml); for MIC in w/w%: chlorhexidine as free base concentration
Procedure: (§1) MINIMAL GROWTH INHIBITORY CONCENTRATION
(§2) The minimal inhibitory concentration (MIC) of the test compound is the minimum concentration of compound required to inhibit growth of the test organism. The MIC is determined by serially diluting the test solution through tubes of sterile broth. The tubes are inoculated and incubated at 37°C for 48 hours. At the end of the incubation time, growth is checked macroscopically. The lowest concentration of test compound to inhibit growth is the MIC.

[2] = tested on: Candida albicans ATCC 18804; details: Experiment 7, C. Albicans, chlorhexidine as free base concentration
Procedure: as §1, §2

[3] = tested on: Actinomyces viscosus T14V; details: Experiment 6, A. viscosus, chlorhexidine as free base concentration
Procedure: as §1, §2

[4] = tested on: Streptococcus sanguis ATCC 19558; details: Experiment 5, S. sanguis, chlorhexidine as free base concentration
Procedure: as §1, §2

[5] = Experiments A-D, agent alone, 37°C, 48 hours

**Q.** Which MIC [1, 5] does the source give for `Cc1ccc(C(C)C)c(O)c1` [Thymol] here?
**A.** The MIC was 80 µg/mL (≈ 533 µM).

**Q.** With `CC12CCC(CC1)C(C)(C)O2` [Eucalyptol] as the compound, how does the MIC [1, 5] read?
**A.** Its MIC is 58 µg/mL (≈ 376 µM).

**Q.** Which MIC [1] does the source give for `COC(=O)c1ccccc1O` [Methyl Salicylate] here?
**A.** The MIC was 35 µg/mL (≈ 230 µM).

**Q.** For `CC1CCC(C(C)C)C(O)C1` (stereo not drawn) [Menthol], which MIC [1] is on record?
**A.** The MIC was 30 µg/mL (≈ 192 µM).

**Q.** What does the source list for `[H]/N=C(\N/C(=N/[H])NCCCCCCNC(=N)NC(=N)Nc1ccc(Cl)cc1)Nc1ccc(Cl)cc1` [Chlorhexidine, 1,6-di(p-chlorophenylbiguanido)hexane]?
**A.** MIC (w/w%) [2]: 3.5x10^-4 w/w%; MIC (w/w%) [3]: 4.4x10^-5 w/w%; MIC (w/w%) [4]: 3.4x10^-4 w/w%; MIC in w/w% ([1]; Experiment 1, agent alone, 37°C, 48 hours): 2.2x10^-5 w/w%; MIC in w/w% ([1]; Experiment 2, agent alone, 37°C, 48 hours): 2.2x10^-5 w/w%; MIC in w/w% ([1]; Experiment 3, agent alone, 37°C, 48 hours): 2.8x10^-5 w/w%; MIC in w/w% ([1]; Experiment 4, agent alone, 37°C, 48 hours): 2.25x10^-5 w/w%; MIC [1, 5]: 0.25 µg/mL (≈ 0.495 µM)
